Data published in patent publication US8653089B2, “Heterocyclic compounds and methods of use” (F. Hoffmann-La Roche AG, priority 2011, dated 2014).
Like-named read-outs stand apart in the source and are kept apart here.

Tested on: production of CD69 by B lymphocytes in human whole blood activated by crosslinking surface IgM
Test: CD69 human whole blood assay (Example 903), FACS
Type: cell-based
Settings: B lymphocytes activated with goat F(ab')2 anti-human IgM, read-out: CD69 Hu Blood FACS IC50
Description: There is good evidence that B-cells play a key role in the pathogenesis of autoimmune and/or inflammatory disease. Protein-based therapeutics that deplete B cells such as Rituxan are effective against autoantibody-driven inflammatory diseases such as rheumatoid arthritis (Rastetter et al. (2004) Annu Rev Med 55:477). CD69 is the early activation marker in leukocytes including T cells, thymocytes, B cells, NK cells, neutrophils, and eosinophils. The CD69 human whole blood assay (Example 903) determines the ability of compounds to inhibit the production of CD69 by B lymphocytes in human whole blood activated by crosslinking surface IgM with goat F(ab′)2 anti-human IgM.

Structure (SMILES)	IC50 (Homo sapiens, Lymphocyte)	IC50
COCC(Nc1ncnc2nc[nH]c12)c1nc2ccc(F)cc2n1-c1ccccc1 (centres unmarked) [Example 171, [1-(6-Fluoro-1-phenyl-1H-benzoimidazol-2-yl)-2-methoxy-ethyl]-(7H-purin-6-yl)-amine]	106 nM	
OCC(Nc1ncnc2nc[nH]c12)c1nc2ccc(F)cc2n1-c1ccccc1 (centres unmarked) [Example 172, 2-(6-Fluoro-1-phenyl-1H-benzoimidazol-2-yl)-2-(7H-purin-6-ylamino)-ethanol]		175 nM
C[C@H](Nc1ncnc2[nH]cnc12)c1nc2ccc(Cl)cc2n1-c1ccccc1 [Example 173, [(S)-1-(6-Chloro-1-phenyl-1H-benzoimidazol-2-yl)-ethyl]-(9H-Aurin-6-yl)-amine]	301 nM	
CC(Nc1ncnc2[nH]cnc12)c1nc2ccc(F)cc2n1-c1cccnc1 (centres unmarked) [Example 176, [1-(6-Fluoro-1-pyridin-3-yl-1H-benzoimidazol-2-yl)-ethyl]-(9H-purin-6-yl)-amine]		62.9 nM
C[C@H](Nc1ncnc2[nH]cnc12)c1nc2ccc(F)c(Br)c2n1-c1ccccc1 [Example 178, [(S)-1-(7-Bromo-6-fluoro-1-phenyl-1H-benzoimidazol-2-yl)-ethyl]-(9H-purin-6-yl)-amine]	80.6 nM	
CC(Nc1ncnc2[nH]cnc12)c1nc2ccc(F)c(Cl)c2n1-c1ccccc1 (centres unmarked) [Example 179, [1-(7-Chloro-6-fluoro-1-phenyl-1H-benzoimidazol-2-yl)-ethyl]-(9H-purin-6-yl)-amine]	146 nM	
CC(Nc1ncnc2[nH]cnc12)c1nc2ccc(F)cc2n1-c1ccccn1 (centres unmarked) [Example 182, [1-(6-Fluoro-1-pyridin-2-yl-1H-benzoimidazol-2-yl)-ethyl]-(9H-purin-6-yl)-amine]		67.1 nM
Cc1c(F)ccc2nc([C@H](C)Nc3ncnc4[nH]cnc34)n(-c3ccccc3)c12 [Example 183, [(S)-1-(6-Fluoro-7-methyl-1-phenyl-1H-benzoimidazol-2-yl)-ethyl]-(9H-purin-6-yl)-amine]	26.2 nM	
C[C@H](Nc1ncnc2[nH]cnc12)c1nc2ccc(F)cc2n1-c1cccc(F)c1 [Example 185, {(S)-1-[6-Fluoro-1-(3-fluoro-phenyl)-1H-benzoimidazol-2-yl]-ethyl}-(9H-purin-6-yl)-amine]	52.1 nM	
CC(Nc1ncnc2[nH]cnc12)c1nc2ccc(F)cc2n1-c1ccc(F)cc1 (centres unmarked) [Example 186, {1-[6-Fluoro-1-(4-fluoro-phenyl)-1H-benzoimidazol-2-yl]-ethyl}-(9H-purin-6-yl)-amine]		134 nM
OCC[C@H](Nc1ncnc2[nH]cnc12)c1nc2ccc(F)cc2n1-c1ccccc1 [Example 187, (S)-3-(6-Fluoro-1-phenyl-1H-benzoimidazol-2-yl)-3-(9H-purin-6-ylamino)-propan-1-ol]	119 nM	
COC[C@H](Nc1ncnc2[nH]cnc12)c1nc2ccc(F)c(C)c2n1-c1ccccc1 [Example 188, [(R)-1-(6-Fluoro-7-methyl-1-phenyl-1H-benzoimidazol-2-yl)-2-methoxy-ethyl]-(9H-purin-6-yl)-amine]	149 nM	
CC(Nc1ncnc2[nH]cnc12)c1nc2ccc(F)c(C#N)c2n1-c1ccccc1 (centres unmarked) [Example 189, 5-Fluoro-3-phenyl-2-[1-(9H-purin-6-ylamino)-ethyl]-3H-benzoimidazole-4-carbonitrile]		39.5 nM
COCC(Nc1ncnc2[nH]cnc12)c1nc2ccc(F)c(F)c2n1-c1ccccc1 (centres unmarked) [Example 190, [1-(6,7-Difluoro-1-phenyl-1H-benzoimidazol-2-yl)-2-methoxy-ethyl]-(9H-purin-6-yl)-amine]	247 nM	
CC(Nc1ncnc2[nH]cnc12)c1nc2ccc(F)cc2n1-c1ccccc1 (centres unmarked) [Example 194, [1-(6-Fluoro-1-phenyl-1H-benzoimidazol-2-yl)-ethyl]-(9H-purin-6-yl)-amine]	50.8 nM	
CC(Nc1ncnc2[nH]cnc12)c1nc2ccc(F)cc2n1-c1ccccc1F (centres unmarked) [Example 195, {1-[6-Fluoro-1-(2-fluoro-phenyl)-1H-benzoimidazol-2-yl]-ethyl}-(9H-purin-6-yl)-amine]	53 nM	
COC(=O)c1c(F)ccc2nc(C(C)Nc3ncnc4[nH]cnc34)n(-c3ccccc3)c12 (centres unmarked) [Example 197, 5-Fluoro-3-phenyl-2-[1-(9H-purin-6-ylamino)-ethyl]-3H-benzoimidazole-4-carboxylic acid methyl ester]	31.6 nM	
CC(Nc1ncnc2[nH]cnc12)c1nc2ccc(F)c(C3CC3)c2n1-c1ccccc1 (centres unmarked) [Example 198, [1-(7-Cyclopropyl-6-fluoro-1-phenyl-1H-benzoimidazol-2-yl)-ethyl]-(9H-purin-6-yl)-amine]	10.9 nM	
C[C@H](Nc1ncnc2[nH]cnc12)c1nc2ccc(F)cc2n1C1CCCCC1 [Example 201, [(S)-1-(1-Cyclohexyl-6-fluoro-1H-benzoimidazol-2-yl)-ethyl]-(9H-purin-6-yl)-amine]	118 nM	

Structure (SMILES)	IC50 (Homo sapiens, Lymphocyte)	IC50
CC(Nc1ncnc2[nH]cnc12)c1nc2ccc(F)c(C(=O)N3CCN(C)CC3)c2n1-c1ccccc1 (centres unmarked) [Example 202, {5-Fluoro-3-phenyl-2-[1-(9H-purin-6-ylamino)-ethyl]-3H-benzoimidazol-4-yl}-(4-methyl-piperazin-1-yl)-methanone]	14.1 nM	
CC(Nc1ncnc2[nH]cnc12)c1nc2ccc(F)c(C(=O)N3CCOCC3)c2n1-c1ccccc1 (centres unmarked) [Example 203, {5-Fluoro-3-phenyl-2-[1-(9H-purin-6-ylamino)-ethyl]-3H-benzoimidazol-4-yl}-morpholin-4-yl-methanone]	2.83 nM	
CC(Nc1ncnc2[nH]cnc12)c1nc2ccc(F)c(C(=O)N(C)C)c2n1-c1ccccc1 (centres unmarked) [Example 204, 5-Fluoro-3-phenyl-2-[1-(9H-purin-6-ylamino)-ethyl]-3H-benzoimidazole-4-carboxylic acid dimethylamide]	67.5 nM	
CCC(Nc1ncnc2[nH]cnc12)c1nc2ccc(F)cc2n1-c1cccnc1 (centres unmarked) [Example 205, [1-(6-Fluoro-1-pyridin-3-yl-1H-benzoimidazol-2-yl)-propyl]-(9H-purin-6-yl)-amine]	42.9 nM	
CC(C)C(Nc1ncnc2[nH]cnc12)c1nc2ccc(F)cc2n1-c1cccnc1 (centres unmarked) [Example 206, [1-(6-Fluoro-1-pyridin-3-yl-1H-benzoimidazol-2-yl)-2-methyl-propyl]-(9H-purin-6-yl)-amine]	54.7 nM	
COc1ccc(-n2c(C(C)Nc3ncnc4[nH]cnc34)nc3ccc(F)cc32)cn1 (centres unmarked) [Example 207, {1-[6-Fluoro-1-(6-methoxy-pyridin-3-yl)-1H-benzoimidazol-2-yl]-ethyl}-(9H-purin-6-yl)-amine]	798 nM	
CC(Nc1ncnc2[nH]cnc12)c1nc2ccc(F)cc2n1-c1ccc(F)cn1 (centres unmarked) [Example 208, {1-[6-Fluoro-1-(5-fluoro-pyridin-2-yl)-1H-benzoimidazol-2-yl]-ethyl}-(9H-purin-6-yl)-amine]	206 nM	
CC(Nc1ncnc2[nH]cnc12)c1nc2ccc(F)cc2n1-c1ccccn1 (centres unmarked) [Example 210, [1-(6-Fluoro-1-pyridin-2-yl-1H-benzoimidazol-2-yl)-ethyl]-(9H-purin-6-yl)-amine]		20.2 nM
CCC(Nc1ncnc2nc[nH]c12)c1nc2ccc(F)cc2n1-c1ccccc1 (centres unmarked) [Example 212, [1-(6-Fluoro-1-phenyl-1H-benzoimidazol-2-yl)-propyl]-(7H-purin-6-yl)-amine]	55.5 nM	
CC(Nc1ncnc2[nH]cnc12)c1nc2ccc(F)c(C#N)c2n1-c1ccccc1 (centres unmarked) [Example 217, 5-Fluoro-3-phenyl-2-[1-(9H-purin-6-ylamino)-ethyl]-3H-benzoimidazole-4-carbonitrile]	43.3 nM	
CC(Nc1ncnc2[nH]cnc12)c1nc2ccc(F)cc2n1-c1cccnc1 (centres unmarked) [Example 220, [1-(6-Fluoro-1-pyridin-3-yl-1H-benzoimidazol-2-yl)-ethyl]-(9H-purin-6-yl)-amine]		12.7 nM
CC(Nc1ncnc2[nH]cnc12)c1nc2ccc(F)cc2n1-c1ccc(F)cc1 (centres unmarked) [Example 221, {1-[6-Fluoro-1-(4-fluoro-phenyl)-1H-benzoimidazol-2-yl]-ethyl}-(9H-purin-6-yl)-amine]	152 nM	
OCC(Nc1ncnc2nc[nH]c12)c1nc2ccc(F)cc2n1-c1ccccc1 (centres unmarked) [Example 224, 2-(6-Fluoro-1-phenyl-1H-benzoimidazol-2-yl)-2-(7H-purin-6-ylamino)-ethanol]	129 nM	
CC(Nc1ncnc2[nH]cnc12)c1nc2ccc(F)cc2n1-c1ccc(C#N)cc1 (centres unmarked) [Example 227, 4-{6-Fluoro-2-[1-(9H-purin-6-ylamino)-ethyl]-benzoimidazol-1-yl}-benzonitrile]	78.3 nM	
CC[C@H](Nc1ncnc2[nH]cnc12)c1nc2ccc(F)c(C#N)c2n1-c1ccccc1 [Example 244, 5-Fluoro-3-phenyl-2-[(S)-1-(9H-purin-6-ylamino)-propyl]-3H-benzoimidazole-4-carbonitrile]	79.3 nM	
C[C@H](Nc1ncnc(N)c1C#N)c1nc2ccc(F)cc2n1-c1ccccc1 [Example 246, 4-Amino-6-[(S)-1-(6-fluoro-1-phenyl-1H-benzoimidazol-2-yl)-ethylamino]-pyrimidine-5-carbonitrile]	16.7 nM	
CC[C@H](Nc1ncnc2[nH]cnc12)c1nc2ccc(F)cc2n1-c1ccccn1 [Example 247, [(S)-1-(6-Fluoro-1-pyridin-2-yl-1H-benzoimidazol-2-yl)-propyl]-(9H-purin-6-yl)-amine]	405 nM	
CC(Nc1ncnc2[nH]cnc12)c1nc2ccc(F)cc2n1-c1ccc(C#N)cc1 (centres unmarked) [Example 248, 4-{6-Fluoro-2-[1-(9H-purin-6-ylamino)-ethyl]-benzoimidazol-1-yl}-benzonitrile]		78.9 nM
C[C@H](Nc1ncnc2[nH]cnc12)c1nc2ccc(F)cc2n1[C@@H]1CCCN(CCO)C1 [Example 256, 2-((R)-3-{6-Fluoro-2-[(S)-1-(9H-purin-6-ylamino)-ethyl]-benzoimidazol-1-yl}-piperidin-1-yl)-ethanol]	68.3 nM	
